For assay [1], the system named is PC-3 cells. Kind of assay: MTT assay, PC-3 cells. The class given is cell-based, human. To be noted: Homo sapiens, PC-3; prostate cancer cells; 48 h of treatment; mean ± SD. The gist of the method:
(§1)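 Cells seeded at 6 × 10^3 per well and pre-incubated overnight, then exposed to compounds in 10% FBS/RPMI for 48 h at 37 °C, 5% CO2. MTT added for 2–4 h, formazan dissolved in DMSO and absorbance read. IC50 derived relative to solvent-treated controls.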

The subject of assay [2] is 22Rv1 cells. Kind of assay: MTT assay, 22Rv1 cells. The format is cell-based, human. To be noted: Homo sapiens, 22Rv1; prostate cancer cells; 48 h of treatment; mean ± SD. Put shortly:
as §1

Assay [3] deals with DU145 cells. Kind of assay: MTT assay, DU145 cells. The class given is cell-based, human. Particulars: Homo sapiens, DU-145; prostate cancer cells; 48 h of treatment; mean ± SD. The gist of the method: as §1
Assay [4] deals with LNCaP cells. Put plainly: MTT assay, LNCaP cells. The class given is cell-based, human. To be noted: Homo sapiens, LNCaP; prostate cancer cells; 48 h of treatment; mean ± SD. The gist of the method:
as §1

In assay [5] the test system is PNT2 cells. Kind of assay: MTT assay, PNT2 cells. The class given is cell-based, human. Particulars: Homo sapiens, PNT2; non-cancer cells; 48 h of treatment; mean ± SD. Put shortly:
as §1

Assay [6] relates to MRC-9 cells. Put plainly: MTT assay, MRC-9 cells. The class given is cell-based, human. Particulars: Homo sapiens, MRC9; non-cancer cells; 48 h of treatment; mean ± SD. Put shortly: as §1
For assay [7], the system named is HEK-293 cells. Kind of assay: MTT assay, HEK-293 cells. The class given is cell-based, human. Particulars: Homo sapiens, HEK293; non-cancer cells; 48 h of treatment; mean ± SD. The gist of the method: as §1
In assay [8] the test system is 22Rv1 cells. Put plainly: Trypan blue-based viability assay. The format is cell-based, human. Particulars: Homo sapiens, 48 h of treatment, mean ± SD, read-out: IC50, trypan blue staining assay. The gist of the method: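 Cells were seeded at 0.2 × 10^6 per well, left overnight, then treated with drugs at the chosen concentrations for 48 h. After trypsinisation and trypan blue staining, automated counting scored unstained cells as viable and stained cells as dead.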

For assay [9], the system named is 22Rv1 cells. Kind of assay: Cell cycle progression, flow cytometry with PI staining. To be noted: treated at IC50 (MTT assay) for 48 h. The class given is cell-based, human. On the procedure:
The effects on cell cycle progression and DNA fragmentation were analyzed by flow cytometry using PI staining, as described before. Cells (2 × 10^5 cells/well) were pre-incubated overnight in 6-well plates and then treated with the investigated drugs in fresh culture media (2 mL/well) for 48 h. Cells were harvested by trypsinization, fixed in 70% EtOH, stained with PI solution and analyzed by FACS Calibur (BD Bioscience, San Jose, CA, USA). The results were quantified using BD Bioscience Cell Quest Pro v.5.2.1. software (BD Bioscience). The cells appearing as a sub-G1 population (containing fragmented DNA) were considered to be apoptotic.

Assay [10] concerns 22Rv1 cells. Kind of assay: DNA fragmentation (apoptosis, sub-G1), flow cytometry with PI staining. The format is cell-based, human. To be noted: treated at IC50 (MTT assay) for 48 h, mean ± SD. Put shortly: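 After overnight pre-incubation, cells were exposed to compounds for 48 h, then trypsinised, fixed in 70% EtOH and PI-stained for flow cytometry. Cell-cycle phase distribution was quantified, and the sub-G1 population with fragmented DNA was scored as apoptotic.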

The test system of assay [11] is double-stranded calf thymus DNA. Kind of assay: Thiazole orange displacement (DNA intercalation) assay. To be noted: 1 µM calf thymus DNA base pairs, 2 µM thiazole orange; 7 min at room temperature; mean ± SD. The class given is binding. On the procedure:
DNA intercalation activity of the compounds was calculated as an ability to displace thiazole orange (TO) from the double-stranded DNA. For this experiment, a mixture (100 µL) containing 1 µM of double-stranded calf thymus DNA (recalculated as a concentration of base pairs) and 2 µM of thiazole orange (TO) solved in water was prepared. Then, the investigated compounds were added up to final concentrations of 0.39–25 µM; DMSO concentration in the samples was <0.02%. Propidium iodide (PI, positive control) was added up to final concentrations of 0.039–2.5 uM. After 7 min of incubation at room temperature, TO fluorescence was monitored using a multimodal plate reader TECAN Spark (Tecan Group Ltd., Männedorf Switzerland) at the excitation λ = 480 nm; fluorescence was recorded at λ = 530 nm. The bandwidth was 10 nm. The concentration of the drug that caused a decrease in TO fluorescence by 50% (EC50) was determined by approximating the experimental data using a non-linear regression algorithm and calculated using the GraphPad Prism software v.9.1.1 (GraphPad Software, San Diego, CA, USA).

Assay [12] relates to prostate cancer cell lines (PC-3, 22Rv1, DU145 and LNCaP). Put plainly: MTT assay, mean over four prostate cancer cell lines. The class given is cell-based. Particulars: Homo sapiens; mean of MTT IC50 in PC-3, 22Rv1, DU145 and LNCaP; from Table S1 values; read-out: mean IC50 in cancer cells. Put shortly:
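Cells were treated for 48 h in 10% FBS/RPMI, then MTT was added for 2-4 h, dissolved in DMSO and read. IC50 was set against solvent-treated controls and averaged across PC-3, 22Rv1, DU145 and LNCaP. Selectivity index was mean non-cancer IC50 over mean cancer IC50.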

For assay [13], the system named is non-cancer cell lines versus cancer cell lines. Kind of assay: Selectivity index from MTT IC50s. The class given is cell-based, human. Particulars: for Selectivity index, IC50 (non-prostate) / IC50 (prostate): mean IC50 MRC-9 and HEK-293 versus mean IC50 prostate cancer cell lines plus PNT2; for Selectivity index, IC50 (non-prostate) / IC50 (prostate) / Selectivity index, IC50 (non-cancer) / IC50 (cancer): MTT; for Selectivity index, IC50 (non-cancer) / IC50 (cancer): mean IC50 non-cancer cell lines versus mean IC50 cancer cell lines.

In assay [14] the test system is VEGFR3. Also noted: method as in PMID 28961193. Particulars: cited from earlier work.
Assay [15] relates to VEGFR2. Also noted: method as in PMID 28961193. Particulars: cited from earlier work.
Assay [16] relates to TRKA. Also noted: method as in PMID 28961193. To be noted: cited from earlier work.
Assay [17] has as its system tumor growth. Also on record: method as in PMID 28961193, PMID 25561006. Particulars: various in vivo models; cited from earlier work.

Consider four compounds from paper PMC8949187, “Study of Structure–Activity Relationships of the Marine Alkaloid Fascaplysin and Its Derivatives as Potent Anticancer Agents” (Marine Drugs, 2022).

`O=C1c2ccc(Br)cc2-[n+]2ccc3c([nH]c4cc(Br)ccc43)c21` [Compound 8, 3,10-dibromofascaplysin]: the IC50 in assay [1] is 7280 ± 480 nM; in [2], 690 ± 19 nM; in assay [3] it was 1510 ± 56 nM; in assay [4], 593 ± 91 nM; in [5], 3490 ± 1010 nM; in assay [6] it was greater than 50000 nM. The IC50 in assay [7] is 540 ± 48 nM; in [8] it was 5140 ± 220 nM; in [12], 2520 nM. In addition, the “Cell cycle arrest (at IC50)” value in assay [9] is recorded as “No”. Moreover, the “% of sub-G1 apoptotic cells (at IC50)” value in assay [10] came to 3.83±0.442%. This compound came in with an EC50 in assay [11] of 4380 ± 60 nM. Moreover, the “Selectivity index (SI), for Figure 2B,C” value in assay [13] (both SI definitions (Figure 2B,C)) was 7–9.
Consider `O=C1c2ccc(Br)cc2-[n+]2ccc3c([nH]c4cccc(Br)c43)c21.[Cl-]` [Compound 9, 12,13-dihydro-3,8-dibromo-13-oxopyrido[1,2-a:3,4-b’]diindol-5-ium chloride], for which the 50% inhibitory concentration (IC50) in assay [1] is 1390 ± 700 nM; in assay [2] it was 209 ± 72 nM; in assay [3], 334 ± 34 nM; in assay [4], 361 ± 85 nM; in assay [5], 369 ± 24 nM; in [6], 2070 ± 470 nM. The IC50 in assay [7] came to 580 ± 99 nM; in [8] it was 259 ± 94 nM; in [12] it was 570 nM. In [9], the “Cell cycle arrest (at IC50)” value was “No”. Besides, the “% of sub-G1 apoptotic cells (at IC50)” value in assay [10] stood at 28.7±3.49%. Further, it took 690 ± 20 nM to reach a half-maximal effect in assay [11] (EC50). In addition, in [13], the “Selectivity index, IC50 (non-prostate) / IC50 (prostate)” value was determined as 2.48. For the same compound, in [13], the “Selectivity index, IC50 (non-cancer) / IC50 (cancer)” value was 1.75.
Turning to `O=C1c2ccccc2-[n+]2ccc3c([nH]c4ccccc43)c21` [Compound 1, fascaplysin], the half-inhibitory concentration (IC50) in [6] was found to be 890 ± 46 nM; in assay [8], 335 ± 93 nM; in assay [12], 550 nM. In addition, the “Cell cycle arrest (at IC50)” value in [9] is “G1-phase arrest”. Also, the “% of sub-G1 apoptotic cells (at IC50)” value in assay [10] worked out at 11.43±0.843%. In addition, the response in assay [11] was half-maximal at 530 ± 10 nM (EC50). The “Selectivity index, IC50 (non-prostate) / IC50 (prostate)” value in [13] is on record as 1.26. Further, the “Selectivity index, IC50 (non-cancer) / IC50 (cancer)” value in [13] came to 1.09. For the same compound, the “concentration inhibiting VEGFR3” value in assay [14] is “lower than 3 µM”. In addition, the “concentration inhibiting VEGFR2” value in assay [15] is “lower than 3 µM”. In addition, the “concentration inhibiting TRKA” value in [16] is “lower than 3 µM”. Further, the “dose at which tumor growth is inhibited” value in assay [17] is 1 to 5 mg/kg.
Take `O=C1c2ccccc2-[n+]2ccc3c([nH]c4ccc(Br)cc43)c21.[Cl-]` [Compound 6, 12,13-dihydro-9-bromo-13-oxopyrido[1,2-a:3,4-b’]diindol-5-ium chloride]: the IC50 turned out to be 2780 ± 370 nM in assay [1]; 1070 ± 94 nM in assay [2]; 2240 ± 180 nM in assay [3]; 1410 ± 89 nM in assay [4]; 2450 ± 950 nM in [5]; 15500 ± 2500 nM in [6]. The IC50 was 2540 ± 1140 nM in assay [7], 2790 ± 223 nM in assay [8] and 1880 nM in assay [12]. In assay [9], the “Cell cycle arrest (at IC50)” value was “No”. In addition, in [10], the “% of sub-G1 apoptotic cells (at IC50)” value was 32.38±1%. Further, the EC50 in assay [11] is greater than 25000 nM. Moreover, the “Selectivity index, IC50 (non-prostate) / IC50 (prostate)” value in assay [13] came to 4.54. In addition, the “Selectivity index, IC50 (non-cancer) / IC50 (cancer)” value in assay [13] was determined as 3.65.
